Experimental findings from patent US9518089B2, “Metallothionein-derived peptide fragments” (University of Tasmania, priority 2006, dated 2016) are described below.

Assay [1] deals with cerebellar granule neurons (CGN). Put plainly: Neuronal differentiation (neurite outgrowth) in primary CGN cultures. Format: cell-based, rat. To be noted: CGN grown 24 h in presence of peptide; FIGS. 1-5. The protocol:
Primary cultures of cerebellar granule neurons (CGN) from seven days old rats were plated at a density of 10,000 cells/cm^2 in eight-well permanox chamber slides and left to differentiate for 24 hours in the presence of various concentrations of peptide. Cells were fixated and immuno-stained for GAP-43 to visualise only neurons. CGN cultures were fixed in 4% paraformaldehyde followed by blocking with 1% BSA and then incubateded with polyclonal rabbit antibodies against rat GAP-43 (Chemicon, AH Diagnostics, Aarhus, Denmark) (1:1000 dilution with 1% BSA) followed by incubation with secondary Alexa Fluor® 488 goat anti-rabbit antibodies (Molecular Probes, Eugene, Oreg., USA) (1:700 dilution with 1% BSA. Neurite length was estimated by means of a stereological approach (Rønn et al., 2000). Results are expressed as percentage neurite outgrowth±SEM, with the untreated controls set at 100%. Statistics are performed with a Student's paired t-test. *=p<0.05, **=p<0.01, ***=p<0.001. If not specifically indicated, four experiments were performed for each condition. 2.

Assay [2] shares this test system. Put plainly: Cell survival assay, low-potassium induced apoptosis of CGN. Format: cell-based, rat. As to conditions: apoptosis induced by 5 mM KCl medium, 48 h; FIGS. 6-9. The protocol:
Primary CGN cultures from seven days old rats were plated at a density of 100,000 cells/cm^2 in eight-well permanox chamber slides coated with poly-D-Lysine and grown in a medium supplemented with 40 mM KCl. After 24 hours cytosine-β-D-arabinofuranoside was added to the culture to inhibit proliferation of non-neuronal cells. Neurons were left to differentiate for further 6 days in vitro, before apoptosis was induced by shifting cells into a starving medium containing either 5 mM KCl alone (negative control), 40 mM KCl (positive control) or 5 mM KCl plus various concentrations of peptide. 48 hours after apoptosis induction cells were fixated and stained with Hoechst 33258. Neuronal viability was estimated by comparing the amount of live neurons with the total number of neurons based on nuclear morphology. Results (see FIGS. 6-9) from at least four independent experiments are expressed as percentage survival±SEM, with the negative control set at 100%. Statistics are performed with a Student's paired t-test. *=p<0.05, **=p<0.01, ***=p<0.001. CGN from 7-day-old rats were induced to differentiate for 7 days in a medium with a high potassium concentration after which the neurons were grown for two days in a low potassium medium either in the absence or presence of IGF-1 (positive control), or the MT-derived peptides.

For assay [3] the test system is unchanged. Put plainly: TUNEL assay (DNA fragmentation) in CGN. It counts as cell-based, rat. As to conditions: 24 h after apoptosis induction; FIG. 10. The protocol: Primary cultures of seven days old rats were plated, cultured and induced to under-go apoptosis as described above for neuronal survival, however cells were fixated 24 hour after apoptosis induction. By using the Fluorescien FragEL DNA fragmentation Kit, which label free DNA ends with a green fluorescent colour, the amount of neurons undergoing DNA fragmentation can be estimated and compared to the total amount of cells, which are stained with propidium idodide. Results (see FIG. 10) from at least four independent experiments are expressed as percentage TUNEL positive cells±SEM, with the negative control set at 100%. Statistics are performed with a Student's paired t-test. *=p<0.05, **=p<0.01, ***=p<0.001.

The subject of assay [4] is focal brain injury on the right fronto-parietal cortex. Put plainly: Neuronal rescue and tissue repair in vivo after focal brain injury (dry-ice lesion). Set-up: species or system rat. To be noted: rats, tetrameric form of peptide s.c. 10 mg/kg/injection, FIG. 11. The protocol: A focal brain injury on the right fronto-parietal cortex was made by applying a piece of dry-ice (−78° C.) directly onto the skull for 30 seconds in mice and 60 seconds in rats, as previously described in detail (Penkowa and Moos, 1995). The rats were treated s.c. with the tetrameric form of the MTAcc peptide ([…]) one day before lesion and one and two days after the lesion (10 mg/kg bodyweight/injection). Three days after the lesion animals were fixed by transcardial perfusion with paraformaldehyde. Histochemistry and immunohistochemistry (IHC) were performed on sections cut from organs taken from fixated animals. For immunohistochemical investigation, brains were dissected and postfixed in Zamboni's fixative for 2-3 hours, dehydraded in graded alcohol followed by xylol and subsequently embedded in paraffin before being cut in 3 μm frontal sections throughout the entire area of the lesion. Terminal deoxynucleotidyl transferase (TdT)-mediated deoxyuridine triphosphate (dUTP)-biotin nick end labeling (TUNEL) was performed using the Fragment End Labeling (FragEL™) Detection Kit (Calbiochem, USA, code QIA33). The FragEL kit contains all the materials used below and each step was performed according to the manufacturer's recommendations. Sections were also immunostained for markers of oxidative stress such as peroxynitrite-induced nitration of tyrosine residues (NITT) and malondialdehyde (MDA) andfor markers of inflammation such as interleukin (IL)-1, IL-12 and tumor necrosis factor (TNF) α, as described by Penkowa et al. (2000).

A further assay deals with MT2 protein (from Sigma). The experiment in a line: Surface plasmon resonance (SPR) analysis of peptide binding to immobilized MT2. To be noted: for Kd / ka / kd: 25° C., PBS pH 7.4, immobilized MT2; for binding to MT2 protein immobilized on a sensor chip: difference to blank chip. The protocol: FIG. 12 Binding of the MTAcc peptide to MT studied by means of SPR analysis. Approximately 2000 resonance units (RU) of the MT2 protein (Sigma) were immobilized on the sensor chip. The binding is given as the response difference between the binding to the sensor chip with the immobilized MT2 and a blank sensor chip (unspecific binding). The peptide was injected into the sensor chip at a concentration of 0.87 μM. The experiment was repeated four times. FIG. 13 Binding of the MTBcc peptide to MT studied by means of SPR analysis. Approximately 2000 resonance units (RU) of the MT2 protein (Sigma) were immobilized on the sensor chip. The binding is given as the response difference between the binding to the sensor chip with the immobilized MT2 and a blank sensor chip (unspecific binding). The peptide was injected into the sensor chip at a concentration of 8.32 μM. The experiment was repeated four times. FIG. 14 Binding of the MTAn peptide to MT studied by means of SPR analysis. Approximately 2000 resonance units (RU) of the MT2 protein (Sigma) were immobilized on the sensor chip. The binding is given as the response difference between the binding to the sensor chip with the immobilized MT2 and a blank sensor chip (unspecific binding). The peptide was injected into the sensor chip at a concentration of 1.7 μM. Analysis of binding was performed employing a BIAcoreX instrument (Biosensor AB, Uppsala, Sweden) at 25° C. using 10 mM pH 7.4 sodium phosphate containing 150 mM NaCl as running buffer (phosphate-buffered saline, PBS). The flow-rate was 5 μl/min. Data were analysed by non-linear curve-fitting using the manufacturer's software. The MT2 protein (from Sigma) was immobilized on a sensor chip CM5 using an amine coupling kit (Biosensor AB) as follows: the chip was activated by 20 μl activation solution; the protein was immobilized using 12 μl 20 μg/ml protein in 10 mM sodium phosphate buffer pH 6.0; the chip was blocked by 35 μl blocking solution. Various peptides at the indicated concentrations were injected into the sensor chip. The curve corresponding to the difference between binding to MT2 and a blank chip was used for analysis.

As a reminder, the Kd is the free concentration of one partner at which half of the binding sites on the other are occupied at equilibrium, for simple one-to-one binding. Consider “AQGSICKGASDKSS [MTAcc, tetrameric form used in vivo]”, for which the “neurite outgrowth / differentiation of cerebellar primary neurons” value (shortened to “neurite outgrowth / differentiation”) in assay [1] is recorded as “stimulated differentiation of cerebellar primary neurons”. Besides, the “neuronal survival of CGN” value in assay [2] was “promoted survival of CGN in a dose dependent manner”. In addition, the “number of apoptotic neurons (TUNEL positive cells, DNA fragmentation)” value in assay [3] is “strongly reduced the number of apoptotic neurons”. Besides, the “number of apoptotic cells (TUNEL staining)” value in assay [4] (day -1, +1, +2, analysed 3 days after lesion) is recorded as “dramatic decrease of the number of apoptotic cell”. Also, in assay [4] (3 days after lesion), the “inflammatory response to the lesion (IL-1, IL-12 and TNFα immunostaining)” value is listed as “inhibition of the inflammatory response to the lesion”; the “oxidative stress (NITT and MDA immunostaining)” value is given as “inhibition of oxidative stress”. Moreover, on MT2 protein (from Sigma), the affinity, expressed as Kd, was 89.5 nM; the ka was 4.54 ± 0.21 × 10^3 M^−1 s^−1; the kd is reported as 4.00 ± 0.27 × 10^−4 s^−1; the “binding to MT2 protein immobilized on a sensor chip” value (“binding to MT2 protein immobilized” for short) is “specifically bind”.

As to “AQGSISKGASDKSS (listed as Homo sapiens) [MTAc]”, the “neurite outgrowth / differentiation” value in assay [1] is on record as “stimulated differentiation of cerebellar primary neurons”. For the same substance, the “neuronal survival of CGN” value in assay [2] is recorded as “promoted survival of CGN in a dose dependent manner”.

For “IGF-1: positive control in the CGN survival assay [reference compound]”, the “neuronal survival of CGN” value in assay [2] is given as “could be prevented”.

As to “KGGEAAEAEAEK (listed as Homo sapiens) [MT31p]”, in assay [1], the “neurite outgrowth / differentiation” value is “no neuritogenic activity”. Besides, the “neuronal survival of CGN” value in assay [2] is “promoted survival of CGN in a dose dependent manner”.

For KKSSCSCSPVGSAK [MTAn], on MT2 protein (from Sigma), the Kd stood at 367 nM, the ka was 1.57 ± 0.05 × 10^4 M^−1 s^−1, the kd was 5.74 ± 0.19 × 10^−3 s^−1 and the “binding to MT2 protein immobilized” value is given as “specifically bind”.

“MDPNCSCAAGDSST (listed as Homo sapiens) [MTBnc]”: the “neurite outgrowth / differentiation” value in assay [1] is on record as “stimulated differentiation of cerebellar primary neurons”. Further, the “neuronal survival of CGN” value in assay [2] is reported as “promoted survival of CGN in a dose dependent manner”.

As for “MDPNSSSAAGDSST (listed as Homo sapiens) [MTBn]”, in assay [1], the “neurite outgrowth / differentiation” value was “no neuritogenic activity”. Moreover, the “neuronal survival of CGN” value in assay [2] is recorded as “promoted survival of CGN in a dose dependent manner”.

Take SAGSCKCKESKSTS [MTBcc]: the “neurite outgrowth / differentiation” value in assay [1] was “stimulated differentiation of cerebellar primary neurons”. The “neuronal survival of CGN” value in assay [2] is “promoted survival of CGN in a dose dependent manner”. Besides, the “number of apoptotic neurons (TUNEL positive cells, DNA fragmentation)” value in assay [3] was “strongly reduced the number of apoptotic neurons”. In the assay with MT2 protein (from Sigma), the ka is 2.83 ± 0.93 × 10^3 M^−1 s^−1, the kd is reported as 5.01 ± 1.75 × 10^−4 s^−1 and the “binding to MT2 protein immobilized” value is given as “specifically bind”.

Take “SAGSSKSKESKSTS (listed as Homo sapiens) [MTBc]”: the “neurite outgrowth / differentiation” value in assay [1] is given as “stimulated differentiation of cerebellar primary neurons”. The “neuronal survival of CGN” value in assay [2] is “promoted survival of CGN in a dose dependent manner”.
